EP0199524B1, “Platinum tramine antitumor agents” (ENGELHARD CORPORATION, priority 1985, dated 1986)

Tested on: S180 ascites
Assay: Screening for anti-tumor activity against S180 ascites (S180a) in mice
Assay type: in vivo, female CFW Swiss mice
Conditions: Dose 10 mg/kg, medium H2O, S180a in mice, survivors/mice in set
Experimental: The compounds were evaluated for anti-tumor activity against S180 ascites in female CFW Swiss mice by the following procedure: CFW mice, averaging 20g, are immediately inspected and placed in newly prepared cages. On day zero the mice are inoculated with 0.2 ml. of a freshly prepared saline suspension (0.15 M NaCl) containing 1 x 10⁷ tumor cells/ml, or a total of 2 x 10⁶ cells. This inoculum is freshly prepared using "transfer" mice which have been injected with tumor cells the previous week. This inoculum is the end-product of a series of steps which involves (1) the removal of the cells from the peritoneal cavity of the sacrificed transfer mouse, (2) alternate centrifugation-washing (2-3 times with cold saline) to remove occasional blood and other undesirable components, and finally (3) dilution (1:3) of the packed cell volume with saline (the final centrifugation being carried out at 1,000 rpm for 2 min.). A cell count is made on a 2,000-fold dilution of this 1:3 suspension by means of a Coulter Counter. A final dilution to 1 x 10⁷ cells/ml. is made based on the averaged count. On day 1, solutions of the test compounds are prepared and the mice injected, with each mouse of a set of six being injected with the same test compound at the same dose level.
ILS values above 50% represent significant activity; those above 75% represent excellent activity.

| SMILES | 30-Day Survivors |
| --- | --- |
| [Cl-].[Cl][Pt-2]1([n+]2ccccc2)[NH2+]C2CCCCC2[NH2+]1 (stereo not drawn) [Example 19, Chloro-1,2-diaminocyclohexanepyridineplatinum(II) chloride] | 0/6 |
| Cc1cc[n+]([Pt-2]([NH3+])([NH3+])[Cl])cc1.[Cl-] (stereo not drawn) [Example 5, Cis-chlorodiammine-4-methylpyridineplatinum(II)chloride] | 0/6 |

Same assay, conditions: Dose 10 mg/kg, medium H2O, injected day 1, S180a in mice, upper limit 100%

| SMILES | %ILS [%] |
| --- | --- |
| [Cl-].[Cl][Pt-2]1([n+]2ccccc2)[NH2+]C2CCCCC2[NH2+]1 (stereo not drawn) [Example 19, Chloro-1,2-diaminocyclohexanepyridineplatinum(II) chloride] | 6 |
| Cc1cc[n+]([Pt-2]([NH3+])([NH3+])[Cl])cc1.[Cl-] (stereo not drawn) [Example 5, Cis-chlorodiammine-4-methylpyridineplatinum(II)chloride] | 5 |

Same assay, conditions: Dose 20 mg/kg, medium H2O, S180a in mice, survivors/mice in set

| SMILES | 30-Day Survivors |
| --- | --- |
| Cc1ccc(O)c[n+]1[Pt-2]([NH3+])([NH3+])[Cl].[Cl-] (stereo not drawn) [Example 7, Cis-chlorodiammine-6-methyl-3-hydroxypyridineplatinum(II) chloride] | 0/6 |
| N.N.Nc1cc[nH]c(=O)n1.[Cl-].[Cl][Pt+] [Example 6, Cis-chlorodiamminecytosineplatinum(II) chloride] | 0/6 |
| [Cl-].[Cl][Pt-2]1([n+]2ccccc2)[NH2+]C2CCCCC2[NH2+]1 (stereo not drawn) [Example 19, Chloro-1,2-diaminocyclohexanepyridineplatinum(II) chloride] | 0/6 |
| Cc1cc[n+]([Pt-2]([NH3+])([NH3+])[Cl])cc1.[Cl-] (stereo not drawn) [Example 5, Cis-chlorodiammine-4-methylpyridineplatinum(II)chloride] | 1/6 |

Same assay, conditions: Dose 20 mg/kg, medium H2O, injected day 1, S180a in mice, upper limit 100%

| SMILES | %ILS [%] |
| --- | --- |
| Cc1ccc(O)c[n+]1[Pt-2]([NH3+])([NH3+])[Cl].[Cl-] (stereo not drawn) [Example 7, Cis-chlorodiammine-6-methyl-3-hydroxypyridineplatinum(II) chloride] | 30 |
| N.N.Nc1cc[nH]c(=O)n1.[Cl-].[Cl][Pt+] [Example 6, Cis-chlorodiamminecytosineplatinum(II) chloride] | 23 |
| [Cl-].[Cl][Pt-2]1([n+]2ccccc2)[NH2+]C2CCCCC2[NH2+]1 (stereo not drawn) [Example 19, Chloro-1,2-diaminocyclohexanepyridineplatinum(II) chloride] | 8 |
| Cc1cc[n+]([Pt-2]([NH3+])([NH3+])[Cl])cc1.[Cl-] (stereo not drawn) [Example 5, Cis-chlorodiammine-4-methylpyridineplatinum(II)chloride] | 27 |

Same assay, conditions: Dose 40 mg/kg, medium H2O, S180a in mice, survivors/mice in set

| SMILES | 30-Day Survivors |
| --- | --- |
| Cc1ccc(O)c[n+]1[Pt-2]([NH3+])([NH3+])[Cl].[Cl-] (stereo not drawn) [Example 7, Cis-chlorodiammine-6-methyl-3-hydroxypyridineplatinum(II) chloride] | 2/6 |
| N.N.Nc1cc[nH]c(=O)n1.[Cl-].[Cl][Pt+] [Example 6, Cis-chlorodiamminecytosineplatinum(II) chloride] | 1/6 |
| [Cl-].[Cl][Pt-2]1([n+]2ccccc2)[NH2+]C2CCCCC2[NH2+]1 (stereo not drawn) [Example 19, Chloro-1,2-diaminocyclohexanepyridineplatinum(II) chloride] | 0/6 |
| Cc1cc[n+]([Pt-2]([NH3+])([NH3+])[Cl])cc1.[Cl-] (stereo not drawn) [Example 5, Cis-chlorodiammine-4-methylpyridineplatinum(II)chloride] | 2/6 |

Same assay, conditions: Dose 40 mg/kg, medium H2O, injected day 1, S180a in mice, upper limit 100%

| SMILES | %ILS [%] |
| --- | --- |
| Cc1ccc(O)c[n+]1[Pt-2]([NH3+])([NH3+])[Cl].[Cl-] (stereo not drawn) [Example 7, Cis-chlorodiammine-6-methyl-3-hydroxypyridineplatinum(II) chloride] | 70 |
| N.N.Nc1cc[nH]c(=O)n1.[Cl-].[Cl][Pt+] [Example 6, Cis-chlorodiamminecytosineplatinum(II) chloride] | 58 |
| [Cl-].[Cl][Pt-2]1([n+]2ccccc2)[NH2+]C2CCCCC2[NH2+]1 (stereo not drawn) [Example 19, Chloro-1,2-diaminocyclohexanepyridineplatinum(II) chloride] | 6 |
| Cc1cc[n+]([Pt-2]([NH3+])([NH3+])[Cl])cc1.[Cl-] (stereo not drawn) [Example 5, Cis-chlorodiammine-4-methylpyridineplatinum(II)chloride] | 83 |

Same assay, conditions: Dose 80 mg/kg, medium H2O, S180a in mice, survivors/mice in set

| SMILES | 30-Day Survivors |
| --- | --- |
| Cc1ccc(O)c[n+]1[Pt-2]([NH3+])([NH3+])[Cl].[Cl-] (stereo not drawn) [Example 7, Cis-chlorodiammine-6-methyl-3-hydroxypyridineplatinum(II) chloride] | 4/6 |
| N.N.Nc1cc[nH]c(=O)n1.[Cl-].[Cl][Pt+] [Example 6, Cis-chlorodiamminecytosineplatinum(II) chloride] | 4/6 |
| [Cl-].[Cl][Pt-2]1([n+]2ccccc2)[NH2+]C2CCCCC2[NH2+]1 (stereo not drawn) [Example 19, Chloro-1,2-diaminocyclohexanepyridineplatinum(II) chloride] | 0/6 |
| Cc1cc[n+]([Pt-2]([NH3+])([NH3+])[Cl])cc1.[Cl-] (stereo not drawn) [Example 5, Cis-chlorodiammine-4-methylpyridineplatinum(II)chloride] | 1/6 |

Same assay, conditions: Dose 80 mg/kg, medium H2O, injected day 1, S180a in mice, upper limit 100%

| SMILES | %ILS [%] |
| --- | --- |
| Cc1ccc(O)c[n+]1[Pt-2]([NH3+])([NH3+])[Cl].[Cl-] (stereo not drawn) [Example 7, Cis-chlorodiammine-6-methyl-3-hydroxypyridineplatinum(II) chloride] | 93 |
| N.N.Nc1cc[nH]c(=O)n1.[Cl-].[Cl][Pt+] [Example 6, Cis-chlorodiamminecytosineplatinum(II) chloride] | 92 |
| [Cl-].[Cl][Pt-2]1([n+]2ccccc2)[NH2+]C2CCCCC2[NH2+]1 (stereo not drawn) [Example 19, Chloro-1,2-diaminocyclohexanepyridineplatinum(II) chloride] | 15 |
| Cc1cc[n+]([Pt-2]([NH3+])([NH3+])[Cl])cc1.[Cl-] (stereo not drawn) [Example 5, Cis-chlorodiammine-4-methylpyridineplatinum(II)chloride] | 66 |

Same assay, conditions: Dose 160 mg/kg, medium H2O, S180a in mice, survivors/mice in set

| SMILES | 30-Day Survivors |
| --- | --- |
| Cc1ccc(O)c[n+]1[Pt-2]([NH3+])([NH3+])[Cl].[Cl-] (stereo not drawn) [Example 7, Cis-chlorodiammine-6-methyl-3-hydroxypyridineplatinum(II) chloride] | 3/6 |
| N.N.Nc1cc[nH]c(=O)n1.[Cl-].[Cl][Pt+] [Example 6, Cis-chlorodiamminecytosineplatinum(II) chloride] | 3/6 |
| [Cl-].[Cl][Pt-2]1([n+]2ccccc2)[NH2+]C2CCCCC2[NH2+]1 (stereo not drawn) [Example 19, Chloro-1,2-diaminocyclohexanepyridineplatinum(II) chloride] | 0/6 |
| Cc1cc[n+]([Pt-2]([NH3+])([NH3+])[Cl])cc1.[Cl-] (stereo not drawn) [Example 5, Cis-chlorodiammine-4-methylpyridineplatinum(II)chloride] | 0/6 |

Same assay, conditions: Dose 160 mg/kg, medium H2O, injected day 1, S180a in mice, upper limit 100%

| SMILES | %ILS [%] |
| --- | --- |
| Cc1ccc(O)c[n+]1[Pt-2]([NH3+])([NH3+])[Cl].[Cl-] (stereo not drawn) [Example 7, Cis-chlorodiammine-6-methyl-3-hydroxypyridineplatinum(II) chloride] | 82 |
| N.N.Nc1cc[nH]c(=O)n1.[Cl-].[Cl][Pt+] [Example 6, Cis-chlorodiamminecytosineplatinum(II) chloride] | 68 |
| [Cl-].[Cl][Pt-2]1([n+]2ccccc2)[NH2+]C2CCCCC2[NH2+]1 (stereo not drawn) [Example 19, Chloro-1,2-diaminocyclohexanepyridineplatinum(II) chloride] | 25 |
| Cc1cc[n+]([Pt-2]([NH3+])([NH3+])[Cl])cc1.[Cl-] (stereo not drawn) [Example 5, Cis-chlorodiammine-4-methylpyridineplatinum(II)chloride] | -77 |

Same assay, conditions: Dose 320 mg/kg, medium H2O, S180a in mice, survivors/mice in set

| SMILES | 30-Day Survivors |
| --- | --- |
| Cc1ccc(O)c[n+]1[Pt-2]([NH3+])([NH3+])[Cl].[Cl-] (stereo not drawn) [Example 7, Cis-chlorodiammine-6-methyl-3-hydroxypyridineplatinum(II) chloride] | 0/6 |
| N.N.Nc1cc[nH]c(=O)n1.[Cl-].[Cl][Pt+] [Example 6, Cis-chlorodiamminecytosineplatinum(II) chloride] | 2/6 |
| [Cl-].[Cl][Pt-2]1([n+]2ccccc2)[NH2+]C2CCCCC2[NH2+]1 (stereo not drawn) [Example 19, Chloro-1,2-diaminocyclohexanepyridineplatinum(II) chloride] | 0/6 |
| Cc1cc[n+]([Pt-2]([NH3+])([NH3+])[Cl])cc1.[Cl-] (stereo not drawn) [Example 5, Cis-chlorodiammine-4-methylpyridineplatinum(II)chloride] | 0/6 |

Same assay, conditions: Dose 320 mg/kg, medium H2O, injected day 1, S180a in mice, upper limit 100%

| SMILES | %ILS [%] |
| --- | --- |
| Cc1ccc(O)c[n+]1[Pt-2]([NH3+])([NH3+])[Cl].[Cl-] (stereo not drawn) [Example 7, Cis-chlorodiammine-6-methyl-3-hydroxypyridineplatinum(II) chloride] | -49 |
| N.N.Nc1cc[nH]c(=O)n1.[Cl-].[Cl][Pt+] [Example 6, Cis-chlorodiamminecytosineplatinum(II) chloride] | -16 |
| [Cl-].[Cl][Pt-2]1([n+]2ccccc2)[NH2+]C2CCCCC2[NH2+]1 (stereo not drawn) [Example 19, Chloro-1,2-diaminocyclohexanepyridineplatinum(II) chloride] | -94 |
| Cc1cc[n+]([Pt-2]([NH3+])([NH3+])[Cl])cc1.[Cl-] (stereo not drawn) [Example 5, Cis-chlorodiammine-4-methylpyridineplatinum(II)chloride] | -91 |

Same assay, conditions: Dose 640 mg/kg, medium H2O, S180a in mice, survivors/mice in set

| SMILES | 30-Day Survivors |
| --- | --- |
| Cc1ccc(O)c[n+]1[Pt-2]([NH3+])([NH3+])[Cl].[Cl-] (stereo not drawn) [Example 7, Cis-chlorodiammine-6-methyl-3-hydroxypyridineplatinum(II) chloride] | 0/6 |
| N.N.Nc1cc[nH]c(=O)n1.[Cl-].[Cl][Pt+] [Example 6, Cis-chlorodiamminecytosineplatinum(II) chloride] | 0/6 |

Same assay, conditions: Dose 640 mg/kg, medium H2O, injected day 1, S180a in mice, upper limit 100%

| SMILES | %ILS [%] |
| --- | --- |
| Cc1ccc(O)c[n+]1[Pt-2]([NH3+])([NH3+])[Cl].[Cl-] (stereo not drawn) [Example 7, Cis-chlorodiammine-6-methyl-3-hydroxypyridineplatinum(II) chloride] | -75 |
| N.N.Nc1cc[nH]c(=O)n1.[Cl-].[Cl][Pt+] [Example 6, Cis-chlorodiamminecytosineplatinum(II) chloride] | -74 |
